Measurements as given in patent publication US4861897A, “2-Aryloxyalkylaminobenzoxazoles and 2-aryloxyalkylaminobenzothiazoles” (Ortho Pharmaceutical Corporation, priority 1987, dated 1989).

Tests used:
[1] = tested on: histamine stimulated parietal cell; experiment: Isolated parietal cell assay, inhibition of 14C-aminopyrine accumulation, histamine stimulated; format: cell-based, rabbit; conditions: Oryctolagus cuniculus, 20 min, Example 48, 37° C., read-out: IC50 vhist (inhibition of 14C-AP accumulation in histamine stimulated parietal cell)
Experimental: (§1) Isolated Parietal Cell Assay
(§2) The isolated parietal cell assay was conducted using the procedures of Batzri, S. et al., Biochemica et Biophysica Acta 508, 328 (1978) and Soll, A. H. Am. J. Physiol. 238, G366 (1980). Basically, parietal cells were isolated from the fundic mucosa of rabbit stomachs by a four-stage collagenase digestion process. The supernatant fractions from the last two stages of this process contain the individual parietal cells. This cell suspension was centrifuged and reconstituted in a modified Hank's buffer to contain 1-2×10^6 cells/ml. […] This accumulation was stimulated by histamine and was blocked by H2 antagonists. The cells were incubated with 0.4-0.5×10^6 cpm ^14 C-AP, with various concentrations of histamine as a stimulant, 1×10^-5 M isobutylmethylxanthine, and the test compound added in a 20 μl volume of buffer or DMSO. The flasks were incubated in a shaking water bath at 37° C. for 20 minutes. Two aliquots were then taken from each flask and cell pellets were collected by centrifugation. The pellets were solubilized with Protosol (New England Nuclear) and radioactivity determined by liquid scintillation spectrometry. Data is presented as the IC50 vhist, the concentration of compound required to inhibit ^14 C-AP accumulation in the histamine stimulated parietal cell by 50%. When dibutyryl cAMP was used to stimulate the cells instead of histamine, a similar inhibition of ^14 C-AP accumulation was measured and the data are presented as the IC50 vcAMP, the concentration required to inhibit ^14 C-AP accumulation in the cAMP stimulated parietal cells by 50%.

[2] = tested on: cAMP stimulated parietal cells; experiment: Isolated parietal cell assay, inhibition of 14C-aminopyrine accumulation, dibutyryl cAMP stimulated; format: cell-based, rabbit; conditions: Oryctolagus cuniculus, 20 min, Example 48, 37° C., read-out: IC50 vcAMP (inhibition of 14C-AP accumulation in cAMP stimulated parietal cells)
Experimental: as §1, §2

[3] = tested on: acid output; experiment: Gastric secretion, acid output in pylorus ligated rats; format: in vivo, male Charles River Sprague Dawley derived rats; conditions: Example 50, i.d. or s.c., four hours after pylorus ligation, compared to control; for % Acid Secreted at mpK: @ 10 mpK; for response vs control in vivo at 20 mg/kg: @ 20 mpK; for response vs control in vivo at 40 mg/kg: @ 40 mpK
Experimental: The inhibitory activity of the compounds on acid output was tested using pylorus ligation in a modification of the procedure of Shay, H. et al., Gastroenterology 26, 906 (1954). Basically, male Charles River Sprague Dawley derived rats weighing 150-300 grams were deprived of food but not water for 18-24 hours prior to use. Water was withheld during the experiment, however. The rats were weighed, anesthetized with ether and the pylorus ligated according to the method of Shay et al., supra. Treatment or vehicle control was then administered intraduodenally (i.d.) or subcutaneously (s.c.). Rats were housed two/cage and sacrificed with CO2 four hours after ligation. The stomachs were removed, rinsed, and contents emptied into a graduated centrifuge tube. The tubes were centrifuged, the volume of gastric juice recorded, and any samples obviously contaminated by feces, food or blood were eliminated. A 1 ml aliquot of gastric juice was titrated with 0.1N NaOH to a pH of 7.0-7.4. The volume of gastric juice secreted, the acid concentration, and the product of the volume times the concentration, i.e., the total amount of acid secreted, were measured.

[4] = target: T1, parietal cell H^+ K^+ ATPase (Oryctolagus cuniculus, UniProt P27112); experiment: Inhibition of parietal cell H+ K+ ATPase; format: biochemical, New Zealand white rabbits; conditions: Example 49; for inhibition at 100 µM: @ 10^-4 M, read-out: % Inhibition at Concentration (H+ K+ ATPase); for IC50: given as "50% @ x μM", read-out: % Inhibition at Concentration (H+ K+ ATPase): concentration given for 50% inhibition
T1 construct: determined in fundic mucosa from New Zealand white rabbits which were homogenized; from tissue; host or cells: fundic mucosa of New Zealand white rabbits, homogenized; membrane protein
Experimental: Inhibition of Parietal Cell H^+ K^+ ATPase
The activity was measured in a 1 ml incubation volume containing 50 mM Tris pH 7.4, 2 mM MgCl2, 2 mM Na2 ATP, with or without 20 mM KCl and vehicle control (dimethylsulfoxide) or test compound added in a 0.02 ml volume. Typically, 20-50 μg membrane protein was added and the tubes were preincubated with test compound for 10 minutes at 37° C. Substrate, Na2 ATP, was then added and the tubes were incubated for another 15 minutes at 37° C. The reaction was stopped by the addition of 1 ml 14% trichloroacetic acid and the samples were centrifuged at 2,000 xg for 10 minutes. The amount of inorganic phosphate present in an aliquot of supernatant was determined. H^+ K^+ ATPase activity was determined after correcting for the basal (Mg^++ only) enzyme activity present in the membrane preparation.

[5] = Rattus norvegicus, 4 h, read-out: % Acid Secreted at mpK

T1 sequence (P27112 2-1035 limits assumed): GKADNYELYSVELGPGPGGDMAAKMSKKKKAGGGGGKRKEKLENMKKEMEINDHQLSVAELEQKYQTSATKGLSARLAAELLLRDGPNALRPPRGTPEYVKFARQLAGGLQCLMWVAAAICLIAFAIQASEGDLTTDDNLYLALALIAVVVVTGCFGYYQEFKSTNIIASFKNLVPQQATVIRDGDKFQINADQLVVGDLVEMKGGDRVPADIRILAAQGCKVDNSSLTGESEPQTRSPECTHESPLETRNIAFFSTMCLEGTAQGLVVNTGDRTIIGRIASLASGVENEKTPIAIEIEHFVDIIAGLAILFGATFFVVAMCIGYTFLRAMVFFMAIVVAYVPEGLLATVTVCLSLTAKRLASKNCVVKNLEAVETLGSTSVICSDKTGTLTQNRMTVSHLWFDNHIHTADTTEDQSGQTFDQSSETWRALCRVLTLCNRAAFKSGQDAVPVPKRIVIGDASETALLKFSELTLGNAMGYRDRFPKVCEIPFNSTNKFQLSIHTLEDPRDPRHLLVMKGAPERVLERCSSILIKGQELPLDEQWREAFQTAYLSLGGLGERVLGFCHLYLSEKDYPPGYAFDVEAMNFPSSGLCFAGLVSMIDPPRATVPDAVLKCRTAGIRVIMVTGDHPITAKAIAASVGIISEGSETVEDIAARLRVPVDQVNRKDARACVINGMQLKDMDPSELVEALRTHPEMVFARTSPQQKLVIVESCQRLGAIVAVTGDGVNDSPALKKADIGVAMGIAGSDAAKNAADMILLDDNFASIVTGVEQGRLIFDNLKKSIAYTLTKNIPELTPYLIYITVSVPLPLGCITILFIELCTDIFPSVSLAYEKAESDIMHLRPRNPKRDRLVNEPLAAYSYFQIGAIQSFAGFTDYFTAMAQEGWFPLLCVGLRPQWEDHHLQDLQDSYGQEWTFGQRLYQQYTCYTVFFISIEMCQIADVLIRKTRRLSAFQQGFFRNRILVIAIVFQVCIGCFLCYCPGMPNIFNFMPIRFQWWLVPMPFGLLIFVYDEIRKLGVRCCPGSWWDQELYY
T1 sequence (P18597 whole entry partner): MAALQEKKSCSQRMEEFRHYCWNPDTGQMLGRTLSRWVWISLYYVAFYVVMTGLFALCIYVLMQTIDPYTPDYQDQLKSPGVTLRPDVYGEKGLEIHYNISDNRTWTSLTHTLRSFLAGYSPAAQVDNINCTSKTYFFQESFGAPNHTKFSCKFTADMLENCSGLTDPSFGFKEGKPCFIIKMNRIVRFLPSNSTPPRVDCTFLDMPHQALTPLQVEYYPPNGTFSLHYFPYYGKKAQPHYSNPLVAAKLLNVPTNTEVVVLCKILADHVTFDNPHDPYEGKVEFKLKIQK

SMILES	IC50 [1] [nM]	IC50 [2] [nM]	inhibition at 100 µM [4] [%]	IC50 [4] [µM]	% Acid Secreted at mpK [3] [%]	response vs control in vivo at 5 mg/kg ([3]; Rattus norvegicus, 4 h, @ 5 mpK, read-out: % Acid Secreted at mpK) [%]	response vs control in vivo at 20 mg/kg [3, 5] [%]	response vs control in vivo at 40 mg/kg [3, 5] [%]
CCCCN(CCCC)CCCOc1cccc(/C=C/c2nc3ccccc3o2)c1 [Example 1]	270	140	49	–	52	44	78	–
CN1CCN(CCCOc2cccc(/C=C/c3nc4ccccc4o3)c2)CC1 [Example 2, (E)-2-[2-[3-[3-(4-Methylpiperazino)propoxy]phenyl]ethenyl]benzoxazole]	1200	410	–	94	–	–	9	–
CCCN(CCC)CCCOc1cccc(/C=C/c2nc3ccccc3o2)c1 [Example 3, (E)-2-[2-(3-Dipropylaminopropoxyphenyl)ethyenyl]benzoxazole]	200	240	–	29	–	–	49	–
C(=C\c1nc2ccccc2o1)/c1cccc(OCCCn2ccnc2)c1 [Example 4]	210	340	–	10	–	–	38	–
CCCN(CCC)CCCCOc1cccc(/C=C/c2nc3ccccc3o2)c1 [Example 5]	120	310	–	14	25	–	74	–
C(=C\c1nc2ccccc2o1)/c1cccc(OCCCCn2ccnc2)c1 [Example 6]	280	230	–	13	–	–	45	–
COc1ccc2nc(/C=C/c3cccc(OCCCCn4ccnc4)c3)oc2c1 [Example 7, (E)-2-[2-(3-(1H-Imidazol-1-yl)butoxyphenyl)ethenyl]-6-methoxybenzoxazole]	120	180	–	74	–	–	–	–
CCCCN(CCCC)CCCOc1ccc(/C=C/c2nc3ccccc3o2)cc1 [Example 8, (E)-2-[2-(4-Dibutylaminopropoxyphenyl)ethenyl]benzoxazole]	150	150	17	–	44	–	–	96
CCCN(CCC)CCCOc1ccc(/C=C/c2nc3ccccc3o2)cc1 [Example 9, (E)-2-[2-(4-Dipropylaminopropoxyphenyl)ethenyl]benzoxazole]	220	350	–	25	29	–	77	97
CCCCN(CCCC)CCCCOc1ccc(/C=C/c2nc3ccccc3o2)cc1 [Example 18]	180	< 10000	–	20	14	–	–	–
C(=C\c1nc2ccccc2o1)/c1ccc(OCCCCN2CCCCC2)cc1 [Example 19]	170	330	–	40	–	–	42	–
CCCN(CCC)CCCCOc1ccc(/C=C/c2nc3ccccc3o2)cc1 [Example 20]	390	110	–	21	59	–	90	–
C(=C\c1nc2ccccc2o1)/c1ccc(OCCCCn2ccnc2)cc1 [Example 21]	270	330	–	30	–	–	14	–
CCN(CC)CCCCOc1ccc(/C=C/c2nc3ccccc3o2)cc1 [Example 22]	80	120	–	74	–	–	31	–
C(=C\c1nc2ccccc2s1)/c1ccc(OCCCCn2ccnc2)cc1 [Example 40, (E)-2-[2-(4-(1H-Imidazol-1-yl)butoxyphenyl)ethenyl]benzothiazole]	200	260	–	–	–	–	–	17

The next lines start with results.

IC50 [1] [nM]	IC50 [2] [nM]	inhibition at 100 µM [4] [%]	IC50 [4] [µM]	SMILES	% Acid Secreted at mpK [3] [%]	response vs control in vivo at 5 mg/kg ([3]; Rattus norvegicus, 4 h, @ 5 mpK, read-out: % Acid Secreted at mpK) [%]	response vs control in vivo at 20 mg/kg [3, 5] [%]	response vs control in vivo at 40 mg/kg [3, 5] [%]
290	250	–	64	C(=C\c1nc2ccccc2o1)/c1ccc(OCCCn2ccnc2)cc1 [Example 10, (E)-2-[2-(4-(1H-Imidazol-1-yl)propoxyphenyl)ethenyl]benzoxazole]	–	–	26	–
320	980	20	–	CCN(CC)CCCOc1ccc(/C=C/c2nc3ccccc3o2)cc1 [Example 11, (E)-2-[2-(4-Diethylaminopropoxyphenyl)ethenyl]benzoxazole]	–	–	–	54
260	150	–	27	C(=C\c1nc2ccccc2o1)/c1ccc(OCCCN2CCCCC2)cc1 [Example 12, (E)-2-[2-[4-(3-Piperidinopropoxy)phenyl]ethenyl]benzoxazole]	–	–	–	88
600	800	43	–	COc1ccccc1N1CCN(CCCOc2ccc(/C=C/c3nc4ccccc4o3)cc2)CC1 [Example 14]	–	–	8	–
260	340	–	27	CCCCN(CCCC)CCCOc1ccc(/C=C/c2nc3cc(C)ccc3o2)cc1 [Example 15, (E)-2-[2-(4-Dibutylaminopropoxyphenyl)ethenyl]-5-methylbenzoxazole]	–	–	–	88
80	50	–	26	CCCCN(CCCC)CCCOc1ccc(/C=C/c2nc3ccc(OC)cc3o2)cc1 [Example 16, (E)-2-[2-(4-Dibutylaminopropoxyphenyl)ethenyl]-6-methoxybenzoxazole]	–	–	–	64
260	540	43	–	CCCCN(CCCC)CCOc1ccc(/C=C/c2nc3ccccc3o2)cc1 [Example 17, (E)-2-[2-(4-Dibutylaminoethoxyphenyl)ethenyl]benzoxazole]	–	–	43	–
260	210	–	–	CCCN(CCC)CCCOc1ccc(/C=C/c2nc3ccccc3s2)cc1 [Example 29, (E)-2-[2-(4-Dipropylaminopropoxyphenyl)ethenyl]benzothiazole]	–	–	30	–
370	150	–	–	CCN(CC)CCCOc1ccc(/C=C/c2nc3ccccc3s2)cc1 [Example 30, (E)-2-[2-(4-Diethylaminopropoxyphenyl)ethenyl]benzothiazole]	–	–	–	71
130	340	–	–	C(=C\c1nc2ccccc2s1)/c1ccc(OCCCn2ccnc2)cc1 [Example 32, (E)-2-[2-(4-(1H-Imidazol-1-yl)propoxyphenyl)ethenyl]benzothiazole]	–	–	22	–
250	2600	–	18	CCCCN(CCCC)CCCOc1ccc(-c2nc3ccccc3s2)cc1 [Example 43, 2-(4-Dibutylaminopropoxyphenyl)benzothiazole]	–	–	–	–
